This passage reports viability and Activity results from ChEMBL document CHEMBL2331257, “(M)- and (P)-bicelaphanol A, dimeric trinorditerpenes with promising neuroprotective activity from Celastrus orbiculatus” (2013).

Common to all, as to assay type: functional
Assay [1] relates to PC-12. As to the kind of experiment: Neuroprotective activity against H2O2-induced toxicity in rat PC12 cells assessed as cell viability at 100 uM incubated for 2 hrs prior to H2O2-challenge measured after 24 hrs by MTT assay relative to control. The following applies: read-out: Activity. On the technique in general: Formazan colour is commonly taken as a measure of viable cells.

Assay [2] has as its system PC-12. As to the kind of experiment: Neuroprotective activity against H2O2-induced toxicity in rat PC12 cells assessed as cell viability at 1 uM incubated for 2 hrs prior to H2O2-challenge measured after 24 hrs by MTT assay relative to control. The following applies: for viability at 1 µM: Rattus norvegicus, PC-12, read-out: Activity.
In assay [3] the test system is PC-12. As to the kind of experiment: Neuroprotective activity against H2O2-induced toxicity in rat PC12 cells assessed as cell viability at 10 uM incubated for 2 hrs prior to H2O2-challenge measured after 24 hrs by MTT assay relative to control. The following applies: for viability at 10 µM: Rattus norvegicus, PC-12, read-out: Activity.

SMILES strings stand for the structures.

On to `CC(=O)N[C@@H](CS)C(=O)O` [ACETYLCYSTEINE], for which the viability at 100 µM in assay [1] was determined as 76.1%.
`CC1(C)CCC[C@@]2(C)C1=C(O)C(=O)c1c2cc(O)c(O)c1C1=C2C=C(O)C(=O)C=C2[C@@]2(C)CCCC(C)(C)[C@@H]2C1=O` (stereo in doubt; 2): the viability at 1 µM in assay [2] worked out at 78.3%. Also, the viability at 10 µM in assay [3] came to 91.6%.
For `CC1(C)CCC[C@@]2(C)C1=C(O)C(=O)c1cc(O)c(O)cc12` [CELAPHANOL A], the viability at 1 µM in assay [2] amounted to 66.4%. Besides, the viability at 10 µM in assay [3] turned out to be 76.9%.
Take `CC1(C)CCC[C@@]2(C)C1=C(O)C(=O)c1c2cc(O)c(O)c1C1=C2C=C(O)C(=O)C=C2[C@@]2(C)CCCC(C)(C)[C@@H]2C1=O` (stereo in doubt; 1): the Activity in assay [2] turned out to be 81.3%; in assay [3], 102.7%.
